Data reported in ChEMBL document CHEMBL4118139, “Novel naphthyloxy derivatives - Potent histamine H3 receptor ligands. Synthesis and pharmacological evaluation” (Bioorg Med Chem, 2018).
pIC50, pKi: −log10 of the molar value. The source made the active and inactive calls. The calls are words filed in the database; no cut-off is given here.

What was measured:
Mus musculus [1] = experiment: Neurotoxicity in albino CF-1 mouse at 65 mg/kg after 4 hrs by rotarod test; type: toxicity, organism-based; conditions: in vivo
Rattus norvegicus [2] = experiment: Anticonvulsant activity in Sprague-Dawley rat assessed as protection against maximal electroshock-induced seizures at 30 mg/kg, ip after 0.25 hrs; type: functional, organism-based
Histamine H3 receptor = Histamine H3 receptor (Homo sapiens, UniProt Q9Y5N1); experiment: Antagonist activity at human H3 receptor expressed in HEK293 cells assessed as inhibition of RAMH-induced reduction of forskolin-stimulated cAMP accumulation after 30 mins by Ulight-based TR-FRET assay; type: functional, cell-based
Mus musculus [3] = experiment: Neurotoxicity in albino CF-1 mouse assessed as increase in subcutaneous pentylenetetrazole-induced continuous seizures at 50 mg/kg, ip measured after 0.25 hrs; type: toxicity, organism-based; conditions: in vivo
[4] = target: Muscarinic acetylcholine receptor M3 (Cavia porcellus) (UniProt Q8VH26); experiment: Agonist activity at muscarinic M3 receptor in guinea-pig ileum assessed as induction of contractions at 1 to 3 uM after 15 mins; type: functional
[5] = Neurotoxicity in po dosed Sprague-Dawley rat after 0.25 hrs by rotarod test; type: toxicity, organism-based; conditions: in vivo
[6] = target: 5-hydroxytryptamine receptor 7 (Homo sapiens, UniProt P34969); experiment: Displacement of [3H]-5-carboxyamidotryptamine from human 5-HT7 receptor expressed in HEK293 cell membranes after 1 hr
Mus musculus [7] = experiment: Anticonvulsant activity in albino CF-1 mouse assessed as protection against maximal electroshock-induced seizures at 50 mg/kg, ip after 4 hrs; type: functional, organism-based
[8] = target: D(1A) dopamine receptor (Homo sapiens) (UniProt P21728); experiment: Displacement of [3H]-SCH23390 from human dopamine D1 receptor expressed in HEK293 cell membranes at 1 uM relative to fluphenazin
Mus musculus [9] = experiment: Anticonvulsant activity in albino CF-1 mouse assessed as protection against subcutaneous pentylenetetrazole-induced seizures at 50 mg/kg, ip measured after 4 hrs; type: functional, organism-based
Mus musculus [10] = experiment: Anticonvulsant activity in albino CF-1 mouse assessed as protection against 44 mA current-induced seizure at 50 mg/kg, ip after 0.25 hrs by 6 Hz psychomotor test; type: functional, organism-based
Rattus norvegicus [11] = experiment: Anticonvulsant activity in Sprague-Dawley rat assessed as protection against maximal electroshock-induced seizures at 30 mg/kg, po after 0.25 hrs; type: functional, organism-based
Mus musculus [12] = experiment: Cognition enhancing effect in albino Swiss CD-1 mouse assessed as reversal of scopolamine-induced amnesia at 20 to 30 mg/kg, ip treated 30 mins prior to acquisition trial followed by scopolamine challenge immediately after acquisition trial by passive avoidance test (reference value: 39.31 +/- 4.01 secs); type: functional, organism-based
[13] = target: Histamine H1 receptor (Cavia porcellus) (UniProt P31389); experiment: Agonist activity at histamine H1 receptor in guinea-pig ileum assessed as induction of contractions at 1 to 3 uM after 15 mins; type: functional
HepG2 = experiment: Cytotoxicity against human HepG2 cells assessed as reduction in cell viability after 72 hrs by MTS assay; type: cell-based; conditions: HepG2, 72 h
Mus musculus [14] = experiment: Neurotoxicity in albino CF-1 mouse at 50 mg/kg, ip after 0.5 hrs by rotarod test; type: toxicity, organism-based; conditions: in vivo
Mus musculus [15] = experiment: Neurotoxicity in albino CF-1 mouse at 65 mg/kg after 1 hr by rotarod test; type: toxicity, organism-based; conditions: in vivo
Mus musculus [16] = experiment: Neurotoxicity in albino CF-1 mouse assessed as increase in subcutaneous pentylenetetrazole-induced continuous seizures at 50 mg/kg, ip measured after 1 hr; type: toxicity, organism-based; conditions: in vivo
Mus musculus [17] = experiment: Anticonvulsant activity in albino CF-1 mouse assessed as protection against maximal electroshock-induced seizures at 50 mg/kg, ip after 0.5 hrs; type: functional, organism-based
Mus musculus [18] = experiment: Anticonvulsant activity in albino CF-1 mouse assessed as protection against 44 mA current-induced seizure at 50 mg/kg, ip after 2 hrs by 6 Hz psychomotor test; type: functional, organism-based
Mus musculus [19] = experiment: Neurotoxicity in albino CF-1 mouse at 30 mg/kg, ip after 2 hrs by rotarod test; type: toxicity, organism-based; conditions: in vivo
Rattus norvegicus [20] = experiment: Anticonvulsant activity in ip Sprague-Dawley rat assessed as protection against subcutaneous pentylenetetrazole-induced seizures measured after 0.25 hrs; type: functional
Rattus norvegicus [21] = experiment: Anticonvulsant activity in Sprague-Dawley rat assessed as protection against maximal electroshock-induced seizures at 65 mg/kg, po after 0.25 hrs; type: functional, organism-based
[22] = target: 5-hydroxytryptamine receptor 2A (Homo sapiens, UniProt P28223); experiment: Displacement of [3H]-ketanserin from human 5-HT2A receptor expressed in CHO cell membranes after 1 hr
[23] = target: D(2) dopamine receptor (Homo sapiens) (UniProt P14416); experiment: Displacement of [3H]-spiperone from human dopamine D2 receptor expressed in CHO cell membranes at 1 uM relative to haloperidol
Mus musculus [24] = experiment: Neurotoxicity in albino CF-1 mouse at 50 mg/kg after 0.5 hrs by rotarod test; type: toxicity, organism-based; conditions: in vivo
Mus musculus [25] = experiment: Effect on spontaneous locomotor activity in ip dosed albino Swiss CD1 mouse assessed as inhibition of number of light beam crossings treated for 30 mins measured for next 30 mins in 10 min intervals; type: organism-based; conditions: in vivo, 0.5 h
Rattus norvegicus [26] = experiment: Anticonvulsant activity in po dosed Sprague-Dawley rat assessed as protection against maximal electroshock-induced seizures after 1 hr; type: functional
[27] = Therapeutic index, ratio of ip dosed albino CF-1 mouse TD50 to ip dosed albino CF-1 mouse ED50 for MES assay; type: toxicity, organism-based; conditions: in vivo, read-out: TI
Mus musculus [28] = experiment: Neurotoxicity in albino CF-1 mouse at 65 mg/kg after 0.25 hrs by rotarod test; type: toxicity, organism-based; conditions: in vivo
Mus musculus [29] = experiment: Neurotoxicity in albino CF-1 mouse at 30 mg/kg, ip after 0.25 hrs by rotarod test; type: toxicity, organism-based; conditions: in vivo
Mus musculus [30] = experiment: Analgesic activity in ip dosed albino Swiss CD1 mouse assessed reduction in formalin-induced inflammatory pain by measuring reduction in time spent in licking treated prior to formalin injection measured at 0 to 5 mins post formalin injection; type: functional
[31] = target: D(3) dopamine receptor (Homo sapiens) (UniProt P35462); experiment: Displacement of [3H]-spiperone from human dopamine D3 receptor expressed in CHO cell membranes at 1 uM relative to haloperidol
Rattus norvegicus [32] = experiment: Anticonvulsant activity in po Sprague-Dawley rat assessed as protection against subcutaneous pentylenetetrazole-induced seizures measured after 1 hr; type: functional
Rattus norvegicus [33] = experiment: Anticonvulsant activity in Sprague-Dawley rat assessed as protection against maximal electroshock-induced seizures at 30 mg/kg, ip after 1 hr; type: functional, organism-based
[34] = Therapeutic index, ratio of ip dosed Sprague-Dawley rat TD50 to ip dosed Sprague-Dawley rat ED50 for MES assay; type: toxicity, organism-based; conditions: in vivo, read-out: TI

Histamine H3 receptor, sequence (Q9Y5N1 whole entry): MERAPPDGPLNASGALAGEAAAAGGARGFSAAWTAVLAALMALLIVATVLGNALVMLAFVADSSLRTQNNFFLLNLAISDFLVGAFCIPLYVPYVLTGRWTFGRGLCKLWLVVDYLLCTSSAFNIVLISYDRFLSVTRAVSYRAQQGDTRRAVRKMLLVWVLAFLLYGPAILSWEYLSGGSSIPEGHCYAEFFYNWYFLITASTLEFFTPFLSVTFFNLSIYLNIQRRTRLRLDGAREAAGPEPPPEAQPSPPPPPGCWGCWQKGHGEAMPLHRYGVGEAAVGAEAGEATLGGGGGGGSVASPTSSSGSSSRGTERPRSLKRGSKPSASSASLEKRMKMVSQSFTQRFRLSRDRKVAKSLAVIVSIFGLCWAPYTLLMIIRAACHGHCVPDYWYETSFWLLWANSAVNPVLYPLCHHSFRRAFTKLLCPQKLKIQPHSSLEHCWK
D(1A) dopamine receptor (Homo sapiens), sequence (P21728 whole entry): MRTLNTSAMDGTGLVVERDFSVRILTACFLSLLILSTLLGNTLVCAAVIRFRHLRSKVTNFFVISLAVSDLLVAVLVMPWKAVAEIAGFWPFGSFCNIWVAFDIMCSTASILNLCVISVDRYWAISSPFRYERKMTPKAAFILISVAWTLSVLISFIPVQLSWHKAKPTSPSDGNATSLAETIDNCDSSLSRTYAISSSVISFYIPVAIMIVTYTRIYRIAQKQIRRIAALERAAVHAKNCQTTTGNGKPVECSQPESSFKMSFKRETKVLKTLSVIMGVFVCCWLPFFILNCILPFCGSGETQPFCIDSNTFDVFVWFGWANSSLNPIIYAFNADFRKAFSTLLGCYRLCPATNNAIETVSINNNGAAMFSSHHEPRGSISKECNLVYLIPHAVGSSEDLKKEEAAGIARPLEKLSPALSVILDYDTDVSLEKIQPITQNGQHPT
D(2) dopamine receptor (Homo sapiens), sequence (P14416 whole entry): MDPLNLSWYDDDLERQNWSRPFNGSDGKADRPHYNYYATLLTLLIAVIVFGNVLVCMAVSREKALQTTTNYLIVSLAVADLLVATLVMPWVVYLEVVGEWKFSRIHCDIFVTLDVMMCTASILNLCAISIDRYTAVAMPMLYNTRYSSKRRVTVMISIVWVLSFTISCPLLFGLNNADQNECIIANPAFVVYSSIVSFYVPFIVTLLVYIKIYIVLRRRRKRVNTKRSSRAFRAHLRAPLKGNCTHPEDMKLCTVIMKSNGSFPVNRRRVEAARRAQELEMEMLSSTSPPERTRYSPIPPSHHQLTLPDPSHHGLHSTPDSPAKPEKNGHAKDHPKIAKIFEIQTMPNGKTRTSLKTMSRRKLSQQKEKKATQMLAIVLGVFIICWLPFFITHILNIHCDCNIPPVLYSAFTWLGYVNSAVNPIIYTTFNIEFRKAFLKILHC
D(3) dopamine receptor (Homo sapiens), sequence (P35462 whole entry): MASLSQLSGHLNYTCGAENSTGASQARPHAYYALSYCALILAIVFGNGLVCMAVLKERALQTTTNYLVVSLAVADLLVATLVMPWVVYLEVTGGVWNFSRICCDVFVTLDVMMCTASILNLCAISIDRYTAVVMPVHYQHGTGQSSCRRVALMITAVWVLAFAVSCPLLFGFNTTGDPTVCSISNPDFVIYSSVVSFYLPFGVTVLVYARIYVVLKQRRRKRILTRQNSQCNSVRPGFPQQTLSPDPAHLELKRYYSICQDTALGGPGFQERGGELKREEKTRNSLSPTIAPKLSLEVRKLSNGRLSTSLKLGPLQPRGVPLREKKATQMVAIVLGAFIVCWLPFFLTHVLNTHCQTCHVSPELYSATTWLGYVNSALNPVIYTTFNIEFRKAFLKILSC
Muscarinic acetylcholine receptor M3 (Cavia porcellus), sequence (Q8VH26 1-587): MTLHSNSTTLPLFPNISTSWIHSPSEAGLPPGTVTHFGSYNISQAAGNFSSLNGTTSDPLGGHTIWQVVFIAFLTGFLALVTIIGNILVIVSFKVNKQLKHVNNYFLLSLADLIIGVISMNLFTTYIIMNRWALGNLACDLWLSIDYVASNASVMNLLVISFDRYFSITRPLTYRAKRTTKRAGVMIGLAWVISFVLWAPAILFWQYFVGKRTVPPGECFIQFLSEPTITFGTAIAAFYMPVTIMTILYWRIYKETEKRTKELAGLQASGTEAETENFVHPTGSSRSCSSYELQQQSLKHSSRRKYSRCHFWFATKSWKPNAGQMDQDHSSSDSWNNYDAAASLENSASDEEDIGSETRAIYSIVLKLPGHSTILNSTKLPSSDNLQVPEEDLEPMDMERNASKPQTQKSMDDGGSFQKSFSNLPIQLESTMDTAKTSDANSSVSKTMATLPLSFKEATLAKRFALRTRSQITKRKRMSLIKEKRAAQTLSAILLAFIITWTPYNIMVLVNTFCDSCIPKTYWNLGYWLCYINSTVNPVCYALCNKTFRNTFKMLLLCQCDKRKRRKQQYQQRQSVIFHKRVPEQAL
5-hydroxytryptamine receptor 2A, sequence (P28223 whole entry): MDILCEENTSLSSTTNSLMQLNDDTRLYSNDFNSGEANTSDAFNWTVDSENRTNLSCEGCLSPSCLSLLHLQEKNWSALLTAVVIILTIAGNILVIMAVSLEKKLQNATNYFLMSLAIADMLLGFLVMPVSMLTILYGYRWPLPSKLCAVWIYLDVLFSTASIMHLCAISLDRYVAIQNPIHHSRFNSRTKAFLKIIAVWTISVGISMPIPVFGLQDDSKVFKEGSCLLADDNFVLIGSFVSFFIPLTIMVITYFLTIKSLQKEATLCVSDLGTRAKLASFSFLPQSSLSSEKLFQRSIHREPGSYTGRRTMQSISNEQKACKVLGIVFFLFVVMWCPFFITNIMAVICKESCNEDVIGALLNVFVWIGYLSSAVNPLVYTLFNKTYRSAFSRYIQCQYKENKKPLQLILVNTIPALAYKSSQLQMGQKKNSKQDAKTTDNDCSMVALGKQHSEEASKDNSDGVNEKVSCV
5-hydroxytryptamine receptor 7, sequence (P34969 whole entry): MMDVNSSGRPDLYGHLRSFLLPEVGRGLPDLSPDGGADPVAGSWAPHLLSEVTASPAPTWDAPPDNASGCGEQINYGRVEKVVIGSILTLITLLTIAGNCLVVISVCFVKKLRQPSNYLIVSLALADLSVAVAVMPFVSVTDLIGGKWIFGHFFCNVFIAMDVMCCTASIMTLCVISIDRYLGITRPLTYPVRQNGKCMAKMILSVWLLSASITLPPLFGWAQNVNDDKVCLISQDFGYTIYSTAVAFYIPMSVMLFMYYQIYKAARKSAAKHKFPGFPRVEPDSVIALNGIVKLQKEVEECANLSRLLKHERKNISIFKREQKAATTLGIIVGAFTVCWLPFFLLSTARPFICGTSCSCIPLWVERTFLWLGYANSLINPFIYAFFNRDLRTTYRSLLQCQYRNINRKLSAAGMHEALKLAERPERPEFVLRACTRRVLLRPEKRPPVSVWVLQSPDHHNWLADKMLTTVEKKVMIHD
Histamine H1 receptor (Cavia porcellus), sequence (P31389 whole entry): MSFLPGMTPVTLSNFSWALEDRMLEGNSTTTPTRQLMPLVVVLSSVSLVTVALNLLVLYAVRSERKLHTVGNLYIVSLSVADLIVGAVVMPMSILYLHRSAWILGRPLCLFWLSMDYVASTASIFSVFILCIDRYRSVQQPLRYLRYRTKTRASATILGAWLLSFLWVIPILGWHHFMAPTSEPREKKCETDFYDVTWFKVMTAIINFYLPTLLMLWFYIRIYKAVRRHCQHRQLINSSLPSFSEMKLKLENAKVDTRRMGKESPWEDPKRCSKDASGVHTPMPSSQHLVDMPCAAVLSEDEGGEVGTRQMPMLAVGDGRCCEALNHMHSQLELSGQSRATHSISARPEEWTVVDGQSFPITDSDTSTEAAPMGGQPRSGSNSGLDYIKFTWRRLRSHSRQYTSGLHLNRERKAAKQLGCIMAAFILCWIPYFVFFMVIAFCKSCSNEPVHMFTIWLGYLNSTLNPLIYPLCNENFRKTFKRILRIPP

For `c1ccc2c(OCCCCCN3CCCCC3)cccc2c1`, the Activity (Mus musculus [1]) was “Non-Toxic”, the Activity (Rattus norvegicus [2]) was “Active” and the pIC50 (Histamine H3 receptor) was 6.78. For the same compound, the inhibition (Histamine H3 receptor) was “Dose-dependent effect”, the Activity (Mus musculus [3]) was “Non-Toxic” and the Activity [4] was “inactive”. For the same compound, the TD50 at 0.25 h [5] was greater than 500 mg/kg, the pKi [6] was 5.64 and the Activity (Mus musculus [7]) was “inactive”. The inhibition [8] was 6.7%, the Activity (Mus musculus [9]) was “inactive” and the Activity (Mus musculus [10]) was “inactive”. The Activity (Rattus norvegicus [11]) was “inactive”, the Activity (Mus musculus [12]) was “Active” and the Activity [13] was “inactive”. For the same compound, the pIC50 (HepG2) was less than 4.30, the Activity (Mus musculus [14]) was “Non-Toxic” and the Activity (Mus musculus [15]) was “Non-Toxic”. For the same compound, the Activity (Mus musculus [16]) was “Non-Toxic”, the Activity (Mus musculus [17]) was “Active” and the Activity (Mus musculus [18]) was “inactive”. The Activity (Mus musculus [19]) was “Non-Toxic”, the ED50 (Rattus norvegicus [20]) was greater than 60.6 mg/kg and the Activity (Rattus norvegicus [21]) was “inactive”. The pKi [22] was 5.41, the inhibition [23] was 2% and the Activity (Mus musculus [24]) was “Non-Toxic”. It also gave an ED50 (Mus musculus [25]) of 11.43 mg/kg, an ED50 (Rattus norvegicus [26]) of 78.1 mg/kg and a selectivity ratio [27] of 4.9. For the same compound, the Activity (Mus musculus [28]) was “Non-Toxic”, the Activity (Mus musculus [29]) was “Non-Toxic” and the ED50 (Mus musculus [30]) was 31.1 mg/kg. The inhibition [31] was 12%, the ED50 (Rattus norvegicus [32]) was greater than 250 mg/kg and the Activity (Rattus norvegicus [33]) was “Active”. For the same compound, the selectivity ratio [34] was 3.4.
